Measurements as given in the OligoGym collection.
Several values for one entry are separate records, joined by “and”; a condition that tells them apart may be missing. Equal entries are not always repeated. After the bases stand the sugars from the 5' end (letter, count) and the backbone: PS all phosphorothioate, else s phosphorothioate and o phosphodiester by linkage. Methylation of C is not given here. e = 2'-O-(2-methoxyethyl) (MOE); k = constrained ethyl (cEt); d = 2'-deoxy (DNA)

What was measured:
SOD1 = conditions: ASO
MALAT1 = conditions: ASO, A431, 0.005 µM

Sequence	target mRNA inhibition (MALAT1)	further results
AGACTACATCCAAGGGA (sugars e3 k2 d7 k2 e3, PS)	–	target mRNA inhibition (SOD1; HepG2, 3 µM): 39%
GGGTTTTTATTCACAGG (sugars e3 k2 d7 k2 e3, PS)	–	target mRNA inhibition (SOD1; HepG2, 3 µM): 17%
TCAGACTACATCCAAGG (sugars e3 k2 d7 k2 e3, PS)	–	target mRNA inhibition (SOD1; HepG2, 0.1875 µM): 19%; target mRNA inhibition (SOD1; HepG2, 0.75 µM): 51%; target mRNA inhibition (SOD1; HepG2, 3 µM): 57% and 74%; target mRNA inhibition (SOD1; HepG2, 12 µM): 85%
CGATCCCAATTACACCA (sugars e3 k2 d7 k2 e3, PS)	–	target mRNA inhibition (SOD1; HepG2, 3 µM): 12%
TTTCTGGATAGAGGATTAAA (sugars e5 d10 e5, PS)	–	target mRNA inhibition (SOD1; HepG2, 5 µM): 6% and 14%
CATCGGCCACACCATCTTTG (sugars e5 d10 e5, PS)	–	target mRNA inhibition (SOD1; HepG2, 5 µM): 34% and 38%
ATCCTTTGGCCCACCGT (sugars e3 k2 d7 k2 e3, PS)	–	target mRNA inhibition (SOD1; HepG2, 3 µM): 51%
AGGACCTGCACTGGTAC (sugars e3 k2 d7 k2 e3, PS)	–	target mRNA inhibition (SOD1; HepG2, 3 µM): 4%
TCCCCACACCTTCACT (sugars kekeddddddddekek, linkages s1 o3 s8 o1 s2)	–	target mRNA inhibition (SOD1; A431, 0.12 µM): 3%; target mRNA inhibition (SOD1; A431, 0.6 µM): 44%; target mRNA inhibition (SOD1; A431, 3 µM): 2%; target mRNA inhibition (SOD1; A431, 15 µM): 8%; target mRNA inhibition (SOD1; HepG2, 0.222 µM): 19%; target mRNA inhibition (SOD1; HepG2, 0.667 µM): 9%; target mRNA inhibition (SOD1; HepG2, 2 µM): 31%; target mRNA inhibition (SOD1; HepG2, 6 µM): 61%
GGCCAATGATGCAATGGTCT (sugars e5 d10 e5, PS)	–	target mRNA inhibition (SOD1; HepG2, 5 µM): 9%
GGTTTTTATTCACAGGC (sugars e3 k2 d7 k2 e3, PS)	–	target mRNA inhibition (SOD1; HepG2, 3 µM): 22%
GACCTGCACTGGTACAG (sugars e3 k2 d7 k2 e3, PS)	–	target mRNA inhibition (SOD1; HepG2, 3 µM): 7%
TTTGTCAGCAGTCACATTGC (sugars e5 d10 e5, PS)	–	target mRNA inhibition (SOD1; HepG2, 5 µM): 26% and 16%
ACATTTCTACAGCTAG (sugars ekddddddddekekee, linkages s1 o1 s8 o3 s2)	–	target mRNA inhibition (SOD1; A431, 0.12 µM): 1%; target mRNA inhibition (SOD1; A431, 0.6 µM): 27%; target mRNA inhibition (SOD1; A431, 3 µM): 32%; target mRNA inhibition (SOD1; A431, 15 µM): 47%
TACAGCTAGCAGGATAA (sugars e3 k2 d7 k2 e3, PS)	–	target mRNA inhibition (SOD1; HepG2, 3 µM): 40%
CATTTCCACCTTTGCCC (sugars e3 k2 d7 k2 e3, PS)	–	target mRNA inhibition (SOD1; HepG2, 3 µM): 73%
ACAAGTTTAATACCCAT (sugars e2 k2 d8 k2 e3, PS)	–	target mRNA inhibition (SOD1; HepG2, 5 µM): 58%
CATCTGTGATTTAAGTC (sugars e2 k2 d9 k2 e2, PS)	–	target mRNA inhibition (SOD1; HepG2, 5 µM): 48%
TCACACAATTACACTTT (sugars e2 k2 d8 k2 e3, PS)	–	target mRNA inhibition (SOD1; HepG2, 5 µM): 28%
ACAGTGTTTAATGTTT (sugars kekeddddddddekek, linkages s1 o3 s8 o1 s2)	–	target mRNA inhibition (SOD1; A431, 0.12 µM): 0%; target mRNA inhibition (SOD1; A431, 0.6 µM): 0%; target mRNA inhibition (SOD1; A431, 3 µM): 0%; target mRNA inhibition (SOD1; A431, 15 µM): 6%; target mRNA inhibition (SOD1; HepG2, 0.222 µM): 55%; target mRNA inhibition (SOD1; HepG2, 0.667 µM): 68%; target mRNA inhibition (SOD1; HepG2, 2 µM): 78%; target mRNA inhibition (SOD1; HepG2, 6 µM): 88%
TTCACTGGTCCATTACT (sugars e3 k2 d7 k2 e3, PS)	–	target mRNA inhibition (SOD1; HepG2, 3 µM): 14%
GCAGGATAACAGATGAG (sugars e3 k2 d7 k2 e3, PS)	–	target mRNA inhibition (SOD1; HepG2, 0.1875 µM): 39%; target mRNA inhibition (SOD1; HepG2, 0.75 µM): 60%; target mRNA inhibition (SOD1; HepG2, 3 µM): 58% and 80%; target mRNA inhibition (SOD1; HepG2, 12 µM): 90%
TTGGGCGATCCCAATTA (sugars e2 k2 d9 k2 e2, PS)	–	target mRNA inhibition (SOD1; HepG2, 4 µM): 5%
TCTGGCAAAATACAGGT (sugars e3 k2 d7 k2 e3, PS)	–	target mRNA inhibition (SOD1; HepG2, 3 µM): 0%
ATCTAAAAGCATTGCC (sugars k3 d10 k3, PS)	18%	–

Sequence	target mRNA inhibition (MALAT1)	further results
CCAAGCTACTGGCTGC (sugars k3 d10 k3, PS)	23%	–
TCATCAAACACCTCAC (sugars k3 d10 k3, PS)	-8%	–
GGATTTTTACCAACCA (sugars k3 d10 k3, PS)	14%	–
AATAGTACTATAGCAT (sugars k3 d10 k3, PS)	15%	–
TCAACTGGGAATACTC (sugars k3 d10 k3, PS)	17%	–
ACCGGAATTCGATCAC (sugars k3 d10 k3, PS)	35%	–
CTCGCTTTCCCTGTGG (sugars k3 d10 k3, PS)	17%	–
CCAACTAATTGCCAAT (sugars k3 d10 k3, PS)	40%	–
TCATCTCAACCTCCGT (sugars k3 d10 k3, PS)	57% and 49%	–
TTCAAGCACCGCTTGA (sugars k3 d10 k3, PS)	12% and 25%	–
TTCGCTTTTATTCTGC (sugars k3 d10 k3, PS)	69% and 88%	–
CTATCTTCACCACGAA (sugars k3 d10 k3, PS)	40%	–
ATGCATTCTAATAGCA (sugars k3 d10 k3, PS)	-1%	–
CTCCCCTTCAAGCACC (sugars k3 d10 k3, PS)	4%	–
CATGAGTTTATCTGCA (sugars k3 d10 k3, PS)	-6%	–
GTTAAGAGAAGCCCAG (sugars k3 d10 k3, PS)	20%	–
AGGATCCAAGCTACTG (sugars k3 d10 k3, PS)	-13%	–
CAACAATTTAGAGCTT (sugars k3 d10 k3, PS)	12%	–
GTTAAGACCATCCCAA (sugars k3 d10 k3, PS)	19%	–
ATACCCTTCTGTTAAC (sugars k3 d10 k3, PS)	2%	–
ATTTAAGGCCTTCCAA (sugars k3 d10 k3, PS)	30%	–
CTGCAAGGTCTCATAC (sugars k3 d10 k3, PS)	24%	–
TATTCTTTTCTTCGCC (sugars k3 d10 k3, PS)	49%	–
GGGATTTGAACCCCGT (sugars k3 d10 k3, PS)	-1%	–
GGCCTTTTCTAACATA (sugars k3 d10 k3, PS)	2%	–

Sequence	target mRNA inhibition (MALAT1)	further results
CTGCAGTTTCTATAGT (sugars k3 d10 k3, PS)	22%	–
TACCACCTTTTGAAGG (sugars k3 d10 k3, PS)	13%	–
CTGCTTACAGATTTGC (sugars k3 d10 k3, PS)	49%	–
ATCCTGAATGGCTTCA (sugars k3 d10 k3, PS)	0%	–
CAGTACTGCATTTACT (sugars k3 d10 k3, PS)	20%	–
AGCTACAACAAGTAAG (sugars k3 d10 k3, PS)	12%	–
ACCGCTTGAGATTTGG (sugars k3 d10 k3, PS)	32% and 41%	–
GACCTCGACACCATCG (sugars k3 d10 k3, PS)	44%	–
GCAAGTTAAACTTATC (sugars k3 d10 k3, PS)	42%	–
AGGCAGTTATATTAGG (sugars k3 d10 k3, PS)	26%	–
TACCACTCTAAGATTG (sugars k3 d10 k3, PS)	5%	–
TAAAAAGGCTCGATGG (sugars k3 d10 k3, PS)	39%	–
CCGTTTTTCAGCTTCC (sugars k3 d10 k3, PS)	6%	–
TCTAATCACTGTCAAT (sugars k3 d10 k3, PS)	32%	–
TAAGATTGTAAGCATT (sugars k3 d10 k3, PS)	23%	–
CCCCAACTGCTTGCAG (sugars k3 d10 k3, PS)	13%	–
CTCCAATACTTGTCTT (sugars k3 d10 k3, PS)	54% and 44%	–
GGTCAGGAGAAAGTGC (sugars k3 d10 k3, PS)	18%	–
ACTGTAAACCTGTGGT (sugars k3 d10 k3, PS)	-6%	–
CAACTCGCATCACCGG (sugars k3 d10 k3, PS)	9%	–
TTTTAGCAGTAACATC (sugars k3 d10 k3, PS)	34%	–
CACTTTAGAGGCTTTT (sugars k3 d10 k3, PS)	42%	–
TTTAAGCCTTCGGTGC (sugars k3 d10 k3, PS)	13%	–
TGGCCTACTCAAGCTC (sugars k3 d10 k3, PS)	-8%	–
CACGGATTTTTACCAA (sugars k3 d10 k3, PS)	19%	–

Sequence	target mRNA inhibition (MALAT1)	further results
ACCAATCCCAACCGTA (sugars k3 d10 k3, PS)	18%	–
CAGCAGTAGGGCTTCT (sugars k3 d10 k3, PS)	-1%	–
AATGCTAGTCCTCAGG (sugars k3 d10 k3, PS)	57% and 78%	–
GAAGAGATACCTGTCT (sugars k3 d10 k3, PS)	-22%	–
GCCAAGCCGCCTGCTA (sugars k3 d10 k3, PS)	20%	–
TTATTTAGAGGGCCTC (sugars k3 d10 k3, PS)	57% and 72%	–
ACCACCTGGAATGGCC (sugars k3 d10 k3, PS)	15%	–
GTGAGAACTGCTCTAG (sugars k3 d10 k3, PS)	36%	–
CCTAGCTTCCTTCACC (sugars k3 d10 k3, PS)	17%	–
TCCGTTACGAAAGTCC (sugars k3 d10 k3, PS)	64% and 59% and 50%	–
ACTTACTGGTTTAAGT (sugars k3 d10 k3, PS)	-3%	–
ATGGACATCTCTTCCA (sugars k3 d10 k3, PS)	30%	–
ACACCCGGAAATCGGC (sugars k3 d10 k3, PS)	8%	–
CTCAGTACGAAACTCC (sugars k3 d10 k3, PS)	30%	–
CGCCAGCCCCCCACGG (sugars k3 d10 k3, PS)	-45%	–
CACTTGATCCCAACTC (sugars k3 d10 k3, PS)	44%	–
TCGCCATGGAAAGCGA (sugars k3 d10 k3, PS)	15%	–
TGCTCCTCAGTCCTAG (sugars k3 d10 k3, PS)	26%	–
ACAAACTGCTTACAGA (sugars k3 d10 k3, PS)	17%	–
ACGAAACATTGGCACA (sugars k3 d10 k3, PS)	62% and 40%	–
CGGATTTTTACCAACC (sugars k3 d10 k3, PS)	38%	–
CATTAAGTTGGTAATT (sugars k3 d10 k3, PS)	12%	–
CTTTAAATTGGTAGCT (sugars k3 d10 k3, PS)	45%	–
